Reference: article PMC8308585, “Design and Synthesis of Novel Thiazolo[5,4-d]pyrimidine Derivatives with High Affinity for Both the Adenosine A1 and A2A Receptors, and Efficacy in Animal Models of Depression” (Pharmaceuticals, 2021)

Key:
mice [1] = assay: Forced swimming test; assay type: in vivo, mouse; conditions: mouse FST, 15 mg kg^−1 s.c., single dose 26 min before test, last 4 min of 6 min, mean ± SEM of 10 mice; vehicle 193.7 ± 8.9
Protocol: (§1) To execute the tests, mice were divided into groups, each of which consisted of 10 animals. The tests were performed after a single p.o. administration of compound 18 at different dosages (10 mg Kg^−1 and 30 mg Kg^−1). Amitriptyline (15 mg Kg^−1) was used as the reference drug. Compounds were acutely administrated 26 min before the beginning of the experiment. In the FST (Table 4), the duration of immobility was recorded during the last 4 min of the 6 min test.
(§2) Male CD-1 albino mice (22–25 g; Envigo, Varese, Italy) were housed in CeSAL (Centro Stabulazione Animali da Laboratorio, University of Florence, Florence, Italy) and used at least one week after their arrival. Animals were housed in 26 cm × 41 cm cages (12 mice each) and fed with a standard laboratory diet and tap water ad libitum. They were kept at 23 ± 1 °C with a 12 h light/dark cycle, light at 7 a.m. Compound 18 was administered per o.s. whereas amitriptyline was by a s.c. route following the most widely used approach reported in the literature.
Mice were individually placed into glass cylinders (height: 25 cm, diameter: 10 cm) containing 12 cm of water maintained at 22–23 °C for 6 min. Immobility was considered the animal floated in the water, in an upright position, and made only small movements to keep its head above water. The immobility time was recorded during the last 4-min of the 6-min test. A decrease in the duration of immobility is indicative of an antidepressant-like effect.
(§3) Behavioral tests were performed by visual observation by researchers blinded to the treatments. Results were expressed as means ± SEM, variance was analyzed by ANOVA. A Bonferroni’s significant difference procedure was used as post-hoc comparison. p values of less than 0.05 and 0.01 were considered significant. Data were analyzed using the “Origin 8.1” software.

mice [2] = assay: Tail suspension test; assay type: in vivo; conditions: mouse TST, 15 mg kg^−1 s.c., single dose, mean ± SEM of 10 mice; vehicle 99.0 ± 6.8
Protocol: as §1
A decrease in the duration of immobility is indicative of an antidepressant-like effect. […] Accordingly, a similar activity was shown in the tail suspension test (Table 5) where the immobility time was measured in the first 2 min, when animals react to the inescapable stress, and in the last 4 min of the test, when the behavioral despair is established. Immobility was defined as the absence of any limb or body movements, except those caused by respiration. A reduction in the duration of the immobility time is indicative of an antidepressant-like effect.
as §2, with “Compound 18 was administered per o.s. whereas amitriptyline was by a s.c. route following the most widely used approach reported in the literature.” left out
A piece of tape was adhered to the upper middle of the tail of each animal, creating a flap with the overlap of tape. […] The duration of the test was 6 min and the immobility time was measured in the first 2 min, when animals react to the inescapable stress, and in the last 4 min of the test, when the behavioral despair is established. […]
Behavioral tests were performed by visual observation by researchers blinded to the treatments. Results were expressed as means ± SEM, variance was analyzed by ANOVA. […] Data were analyzed using the “Origin 8.1” software.

mice [3] = assay: Sucrose preference test, LPS-induced anhedonia; assay type: in vivo, mouse; conditions: LPS 1.25 mg kg^−1 i.p. mice, 15 mg kg^−1 s.c. same protocol
Protocol: Anhedonia, or the inability to experience pleasure, is a common symptom of depression. The mood regulatory role of 18 was studied against anhedonia evaluated in the sucrose preference test in animals treated with lipopolysaccharide (LPS), a model of neuroinflammation-induced depressive-like syndrome. Compound 18 (10 mg kg^−1 and 30 mg kg^−1) was daily p.o administered for five consecutive days. Twenty-four hours after the last 18 treatment, LPS 1.25 mg kg^−1 was intraperitoneally injected. Immediately after LPS injection, mice were placed in cages equipped with two bottles: a bottle of 2% sucrose solution and a bottle of water (unsweetened tap water). The consumption of the 2% sucrose solution was evaluated 6 h and 24 h after LPS injection. Amitriptyline (15 mg kg^−1) was used as the reference drug administered following the same protocol.
as §2
Lipopolysaccharide (LPS) from Escherichia coli was purchased from Sigma-Aldrich, (Milan, Italy) freshly dissolved in sterile saline, and injected intraperitoneally (i.p.) at the dose of 1.25 mg kg^−1 [49] after five consecutive days of treatment with compound 18, 1 h after the last administration of the compound. Behavioral tests were performed before 6 h and 24 h after LPS administration.
Mice were placed in cages equipped with a couple of bottles, one containing 2% sucrose solution, the second with water (unsweetened tap water). The consumption of the 2% sucrose solution was evaluated 6 h and 24 h after the beginning of the experiment. The preference index was calculated according to the following formula: preference index = volume consumed sucrose solution/(volume consumed sucrose solution + volume consumed water).
as §3

hA2B AR = molecular target: T1, hA2B AR (Homo sapiens, UniProt P29275); design: method as in PMID 30638876; conditions: inhibition of NECA-stimulated adenylyl cyclase activity, CHO cells; ref [34]; cited from earlier work
T1 construct: expressed in transfected cells; host or cells: CHO cells
T1 sequence (P29275 1-332): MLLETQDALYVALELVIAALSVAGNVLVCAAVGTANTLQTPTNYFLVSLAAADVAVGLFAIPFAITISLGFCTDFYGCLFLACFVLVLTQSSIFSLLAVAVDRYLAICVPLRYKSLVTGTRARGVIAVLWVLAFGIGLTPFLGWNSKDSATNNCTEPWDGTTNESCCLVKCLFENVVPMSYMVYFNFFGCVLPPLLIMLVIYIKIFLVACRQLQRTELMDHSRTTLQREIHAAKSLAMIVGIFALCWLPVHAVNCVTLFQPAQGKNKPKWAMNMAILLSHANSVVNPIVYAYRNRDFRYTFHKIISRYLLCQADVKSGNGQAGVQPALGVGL

Compound | Immobility Time (mice [1]) [s] | Immobility Time (mice [2]) [s] | Sucrose Preference (%), 6 h (mice [3]; 6 h after LPS, vehicle + LPS 42.3 ± 3.1) [%] | Sucrose Preference (%), 24 h (mice [3]; 24 h after LPS, vehicle + LPS 38.0 ± 5.6) [%] | IC50 (hA2B AR) [µM]
CN(C)CCC=C1c2ccccc2CCc2ccccc21 [amitriptyline, reference compound] | 149.4 ± 4.6 | 61.6 ± 8.4 | 69.1 ± 4.8 | 70.3 ± 6.4 | 
Nc1nc(-c2ccccc2)nc2sc(-c3ccccc3)nc12 [compound 20] |  |  |  |  | > 30
